Columns and labels:
DHFR fusion protein = assay: MP5 competition assay (yeast three-hybrid X-gal plate assay of lacZ transcription); assay type: cell-based; details: 1 μM D8M, X-gal plates, LexA/B42 chimeras of DHFR and rGR
Procedure: FIG. 7. MP5 Competition Assay. […] Columns A through H on each plate correspond to yeast strains containing different LexA- and/or B42-chimeras: A, LexA-Sec16p, B42-Sec6p. A is a direct protein-protein interaction used as a positive control. B, LexA, B42. C, LexA-eDHFR, B42-rGR. D, LexA-mDHFR, B42-rGR. E, LexA-rGR, B42-eDHFR. F, LexA-rGR, B42-mDHFR. G, LexA-eDHFR, B42. H, LexA, B42-rGR.
This competition assay was performed using D8M as the “well characterized” small molecule.

LexA-rGR and B42-DHFR = target: T1, LexA-rGR and B42-DHFR (UniProt P06536+P0ABQ4); details: shown by WO 01/53355; cited from earlier work
T1 sequence (P06536 542-776 limits assumed): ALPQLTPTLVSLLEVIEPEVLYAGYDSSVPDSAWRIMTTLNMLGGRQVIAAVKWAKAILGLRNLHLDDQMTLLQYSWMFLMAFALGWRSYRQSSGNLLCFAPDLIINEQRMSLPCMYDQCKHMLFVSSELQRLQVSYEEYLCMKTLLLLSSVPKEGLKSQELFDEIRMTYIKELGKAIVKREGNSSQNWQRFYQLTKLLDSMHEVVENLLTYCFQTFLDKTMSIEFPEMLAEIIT
T1 sequence (P0ABQ4 1-159): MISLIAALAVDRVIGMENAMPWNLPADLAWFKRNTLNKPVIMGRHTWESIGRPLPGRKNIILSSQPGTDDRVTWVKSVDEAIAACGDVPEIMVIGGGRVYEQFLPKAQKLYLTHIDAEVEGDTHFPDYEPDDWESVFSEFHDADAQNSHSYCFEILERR

E. coli = details: supplemented with appropriate nutrients; cited from earlier work
S. cerevisiae = details: supplemented with appropriate nutrients; cited from earlier work
[1] = system: dihydrofolate reductase (DHFR); details: cited from earlier work

Row | SMILES | induction of lacZ transcription (DHFR fusion protein) | dimerization of LexA-rGR and B42-DHFR based on lacZ transcription (LexA-rGR and B42-DHFR) | growth in the presence of MTX (E. coli) | growth in the presence of MTX (S. cerevisiae) | affinity of DHFR binding [1] | affinity of DHFR inhibition [1]
1 | C[C@@H]1C[C@H]2C3CCC4=CC(=O)C=C[C@]4(C)[C@@]3(F)[C@@H](O)C[C@]2(C)[C@@]1(O)C(=O)NCCSCCCCCCCCSCC[C@H](NC(=O)c1ccc(N(C)Cc2cnc3nc(N)nc(N)c3n2)cc1)C(=O)O (stereo partly drawn) [D8M] | induced lacZ transcription | mediate the dimerization of LexA-rGR and B42-DHFR |  |  |  | 
2 | CN(Cc1cnc2nc(N)nc(N)c2n1)c1ccc(C(=O)N[C@@H](CCC(=O)O)C(=O)O)cc1 [MTX, methotrexate] |  |  | grow in the presence of MTX | grow in the presence of MTX | nM affinity | pM affinity

Source: US20030138785A1 (priority 2001, published 2003)
